Read-outs that look alike come from different tables or passages of the source. Where a SMILES comes first, the peptide text is derived from it. [ ]: non-standard residue; d: D form. The star is where a group is joined. Benzoyl(3-OH,4-OMe) = COc1ccc(C(=O)*)cc1O; ClZ = O=C(OCc1ccccc1Cl)*; Cbz = O=C(OCc1ccccc1)*
Biological target: T1, GADD45β/MKK7 complex (Homo sapiens, UniProt O14733)
T1 construct: Full-length human (h)MKK7 was expressed as a protein fused to an N-terminal GST tag (GST-MKK7); made in house
T1 sequence (O14733 1-419): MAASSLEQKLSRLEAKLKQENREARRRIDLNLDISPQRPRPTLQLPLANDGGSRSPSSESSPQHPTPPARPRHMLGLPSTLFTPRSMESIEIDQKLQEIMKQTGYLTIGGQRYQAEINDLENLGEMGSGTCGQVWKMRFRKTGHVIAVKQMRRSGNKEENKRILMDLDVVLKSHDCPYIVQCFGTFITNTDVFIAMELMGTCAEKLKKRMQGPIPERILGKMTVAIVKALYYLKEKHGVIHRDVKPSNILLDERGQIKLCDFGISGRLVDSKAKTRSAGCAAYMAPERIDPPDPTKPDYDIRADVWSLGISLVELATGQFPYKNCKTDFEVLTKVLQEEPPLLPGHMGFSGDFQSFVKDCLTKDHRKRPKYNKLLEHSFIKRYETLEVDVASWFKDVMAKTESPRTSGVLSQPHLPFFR
Assay: ELISA GADD45β/MKK7 competition assay
Type: binding
Text: Additional details are provided in Supplemental Experimental Procedures.
(1:1,000) and the HRP chromogenic substrate, o -phenylenediamine (OPD). GST -coated wells wer e […]
The ELISA competition screen used f or the isolation of antagonists of the GADD45β /MKK7 […]
The library deconvolution strategy used for this screen was described previously […]
General information about this type of screens can be found elsewhere […]
Values were expressed as the percentage of inhibition of His6-hGADD45β binding to GST-hMKK7 relative to the binding measured in the absence of […]
Dose-response, ELISA GADD45β /MKK7 competition assays were carried out under similar […]
As part of the SAR analysis and lead optimization process, where appropriate, competitors were tested at a concentration up to 100 nM. In order to determine their stability in biolog ical f luids , peptides were incubated at the concentration of 10 µM in […]
calculated using at least 7 concentrations of peptide and def ined as the mean concentration of peptide […]
the absence of competitor. W here indicated, values were expressed as the percentage of inhibition of His 6 -hGADD45β binding to GST-hMKK7 relative to the binding measured in the absence of competitor.
GST was used as a control in all the experiments. […]
tetrapeptide used as negative control in some of the ELISA and cellular assays was as f ollows: z -DNC, z-T yr -Asp-His-Gln-NH 2 . […]

[1] = Table S3, peptide at 10 nM, read-out: % inhibition (ELISA)
[2] = Table S3, read-out: IC50 (ELISA)
[3] = Table S4, values marked (#), peptide at 42 nM, read-out: % inhibition of (ELISA)
[4] = Figure 3A, before preincubation with human serum, read-out: IC50
[5] = Figure 3B, after a 48 hr preincubation with human serum, read-out: IC50
[6] = Table S2, peptide at 42 nM, read-out: % inhibition (ELISA)
[7] = Table S4, read-out: IC50s (ELISA)

| Structure (SMILES) | inhibition at 0.042 µM [6] | IC50 [7] | also measured |
| --- | --- | --- | --- |
| COc1ccc(C(=O)N[C@H](Cc2ccc(O)cc2)C(=O)N[C@H](CC(=O)O)C(=O)N[C@H](Cc2c[nH]cn2)C(=O)N[C@H](Cc2ccccc2)C(N)=O)cc1O ({Benzoyl(3-OH,4-OMe)}-[dY][dD][dH][dF]-NH2) | – | – | inhibition at 0.01 µM (read-out: % inhibition (ELISA)): 81% |
| COc1ccc(C(=O)N[C@H](Cc2ccc(O)cc2)C(=O)N[C@H](CC(=O)O)C(=O)N[C@H](Cc2c[nH]cn2)C(=O)N[C@H](CCC(N)=O)C(N)=O)cc1O ({Benzoyl(3-OH,4-OMe)}-[dY][dD][dH][dQ]-NH2) | – | – | inhibition at 0.01 µM (read-out: % inhibition (ELISA)): 7% |
| COc1ccc(C(=O)N[C@H](Cc2ccc(O)cc2)C(=O)N[C@H](CCC(=O)O)C(=O)N[C@H](CCCNC(=N)N)C(=O)N[C@H](Cc2ccccc2)C(N)=O)cc1O ({Benzoyl(3-OH,4-OMe)}-[dY][dE][dR][dF]-NH2) | – | – | inhibition at 0.01 µM (read-out: % inhibition (ELISA)): 86% |
| NC(=O)[C@@H](Cc1ccccc1)NC(=O)[C@@H](Cc1c[nH]cn1)NC(=O)[C@@H](CC(=O)O)NC(=O)[C@@H](Cc1ccc(O)cc1)NC(=O)OCc1ccccc1Cl [2CI-z-YDHF-NH2] (ClZ-[dY][dD][dH][dF]-NH2) | – | – | inhibition at 0.01 µM [1]: 38%; IC50 [2]: > 10 nM |
| NC(=O)CC[C@@H](NC(=O)[C@@H](Cc1c[nH]cn1)NC(=O)[C@@H](CC(=O)O)NC(=O)[C@@H](Cc1ccc(O)cc1)NC(=O)OCc1ccccc1Cl)C(N)=O [2CI-z-YDHQ-NH2] (ClZ-[dY][dD][dH][dQ]-NH2) | – | – | inhibition at 0.01 µM [1]: 40%; IC50 [2]: > 10 nM |
| N=C(N)NCCC[C@@H](NC(=O)[C@@H](CCC(=O)O)NC(=O)[C@@H](Cc1ccc(O)cc1)NC(=O)OCc1ccccc1Cl)C(=O)N[C@H](Cc1ccccc1)C(N)=O [2CI-z-YERF-NH2] (ClZ-[dY][dE][dR][dF]-NH2) | – | – | inhibition at 0.01 µM [1]: 38%; IC50 [2]: > 10 nM |
| CC(=O)NC(C)C(=O)NC(CCC(=O)O)C(=O)NC(CCCNC(=N)N)C(=O)NC(Cc1ccccc1)C(N)=O (stereo not drawn) [Ac-AERF-NH2] (Ac-AERF-NH2; configuration not given here) | – | – | inhibition at 0.042 µM [3]: 7% |
| CC(=O)N[C@H](Cc1ccc(O)cc1)C(=O)N[C@H](CC(=O)O)C(=O)N[C@H](Cc1c[nH]cn1)C(=O)N[C@H](Cc1ccccc1)C(N)=O [Ac-DTP1, Ac-Tyr-Asp-His-Phe-NH2] | – | – | IC50 [4]: 0.19 nM; IC50 [5]: 0.2 nM |
| CC(=O)N[C@H](Cc1ccc(O)cc1)C(=O)N[C@H](CCC(=O)O)C(=O)N[C@H](CCCNC(=N)N)C(=O)N[C@H](Cc1ccccc1)C(N)=O [Ac-DTP2, Ac-Tyr-Glu-Arg-Phe-NH2] | – | – | IC50 [4]: 0.22 nM; IC50 [5]: 0.22 nM |
| CC(=O)N[C@@H](Cc1ccc(O)cc1)C(=O)N[C@@H](CC(=O)O)C(=O)N[C@@H](Cc1c[nH]cn1)C(=O)N[C@@H](Cc1ccccc1)C(N)=O [Ac-LTP1, Ac-YDHF-NH2] | 94% | – | IC50 [4]: 0.4 nM; IC50 [5]: > 10 nM |
| CC(=O)N[C@@H](Cc1ccc(O)cc1)C(=O)N[C@@H](CCC(=O)O)C(=O)N[C@@H](CCCNC(=N)N)C(=O)N[C@@H](Cc1ccccc1)C(N)=O [Ac-LTP2, Ac-YERF-NH2] | 93% | 0.4 nM | IC50 [5]: > 10 nM |
| CC(=O)N1CCCC1C(=O)NC(CCC(=O)O)C(=O)NC(CCCNC(=N)N)C(=O)NC(Cc1ccccc1)C(N)=O (stereo not drawn) [Ac-PERF-NH2] (Ac-PERF-NH2; configuration not given here) | – | – | inhibition at 0.01 µM (Table S4, values marked (##), peptide at 10 nM, read-out: % inhibition of (ELISA)): 24% |
| CC(=O)N[C@@H](Cc1c[nH]c2ccccc12)C(=O)N[C@@H](CC(=O)O)C(=O)N[C@@H](Cc1c[nH]cn1)C(=O)N[C@@H](Cc1ccccc1)C(N)=O [Ac-WDHF-NH2] (Ac-WDHF-NH2) | 28% | > 42 nM | – |
| CC(=O)N[C@@H](Cc1c[nH]c2ccccc12)C(=O)N[C@@H](CC(=O)O)C(=O)N[C@@H](CCCCN)C(=O)N[C@@H](Cc1ccccc1)C(N)=O [Ac-WDKF-NH2] (Ac-WDKF-NH2) | 25% | – | – |
| CC(=O)N[C@@H](Cc1c[nH]c2ccccc12)C(=O)N[C@@H](CC(=O)O)C(=O)N[C@@H](CCCCN)C(=O)N[C@@H](Cc1c[nH]c2ccccc12)C(N)=O [Ac-WDKW-NH2] (Ac-WDKW-NH2) | 69% | < 42 nM | – |
| CC(=O)N[C@@H](Cc1c[nH]c2ccccc12)C(=O)N[C@@H](CCC(=O)O)C(=O)N[C@@H](Cc1c[nH]cn1)C(=O)N[C@@H](Cc1c[nH]c2ccccc12)C(N)=O [Ac-WEHW-NH2] (Ac-WEHW-NH2) | 75% | < 42 nM | – |
| CC(=O)N[C@@H](Cc1c[nH]c2ccccc12)C(=O)N[C@@H](CCC(=O)O)C(=O)N[C@@H](CCCCN)C(=O)N[C@@H](Cc1ccccc1)C(N)=O [Ac-WEKF-NH2] (Ac-WEKF-NH2) | 65% | < 42 nM | – |
| CC(=O)N[C@@H](Cc1c[nH]c2ccccc12)C(=O)N[C@@H](CCC(=O)O)C(=O)N[C@@H](CCCCN)C(=O)N[C@@H](Cc1c[nH]c2ccccc12)C(N)=O [Ac-WEKW-NH2] (Ac-WEKW-NH2) | 58% | < 42 nM | – |
| CC(=O)N[C@H](Cc1ccc(O)cc1)C(=O)N[C@H](C)C(=O)N[C@H](CCCNC(=N)N)C(=O)N[C@H](Cc1ccccc1)C(N)=O [Ac-YARF-NH2] (Ac-[dY][dA][dR][dF]-NH2) | – | – | inhibition at 0.042 µM (read-out: % inhibition of (ELISA)): 17% |
| CC(=O)N[C@H](Cc1ccc(O)cc1)C(=O)N[C@H](CC(=O)O)C(=O)N[C@H](Cc1c[nH]cn1)C(=O)N[C@H](Cc1ccccc1)C(=O)N[C@H](CCCCNC(=O)OCc1ccccc1)C(N)=O [Ac-YDHFK(εZ)-NH2] (Ac-[dY][dD][dH][dF][dK](Cbz)-NH2) | – | – | inhibition at 0.01 µM [1]: 8%; IC50 [2]: > 10 nM |
| CC(=O)N[C@H](Cc1ccc(O)cc1)C(=O)N[C@H](CC(=O)O)C(=O)N[C@H](Cc1c[nH]cn1)C(=O)N[C@H](CCC(N)=O)C(=O)N[C@H](CCCCNC(=O)OCc1ccccc1)C(N)=O [Ac-YDHQK(εZ)-NH2] (Ac-[dY][dD][dH][dQ][dK](Cbz)-NH2) | – | – | inhibition at 0.01 µM [1]: 2%; IC50 [2]: > 10 nM |
| CC(=O)N[C@H](Cc1ccc(O)cc1)C(=O)N[C@H](CCC(=O)O)C(=O)N[C@H](C)C(=O)N[C@H](Cc1ccccc1)C(N)=O [Ac-YEAF-NH2] (Ac-[dY][dE][dA][dF]-NH2) | – | – | inhibition at 0.042 µM [3]: 13% |

Further lines, with some results ahead:

| inhibition at 0.042 µM [6] | IC50 [7] | Structure (SMILES) | also measured |
| --- | --- | --- | --- |
| 28% | > 42 nM | CC(=O)N[C@@H](Cc1c[nH]c2ccccc12)C(=O)N[C@@H](CCC(=O)O)C(=O)N[C@@H](CCCNC(=N)N)C(=O)N[C@@H](Cc1ccccc1)C(N)=O [Ac-WERF-NH2] (Ac-WERF-NH2) | – |
| 64% | < 42 nM | CC(=O)N[C@@H](Cc1c[nH]c2ccccc12)C(=O)N[C@@H](CCC(=O)O)C(=O)N[C@@H](CCCNC(=N)N)C(=O)N[C@@H](Cc1c[nH]c2ccccc12)C(N)=O [Ac-WERW-NH2] (Ac-WERW-NH2) | inhibition at 0.042 µM [3]: 69% |
| 43% | > 10 nM | CC(=O)N[C@@H](Cc1ccc(O)cc1)C(=O)N[C@@H](CC(=O)O)C(=O)N[C@@H](CCCCN)C(=O)N[C@@H](Cc1c[nH]c2ccccc12)C(N)=O [Ac-YDKW-NH2] (Ac-YDKW-NH2) | – |
| 64% | < 42 nM | CC(=O)N[C@@H](Cc1ccc(O)cc1)C(=O)N[C@@H](CCC(=O)O)C(=O)N[C@@H](Cc1c[nH]cn1)C(=O)N[C@@H](Cc1c[nH]c2ccccc12)C(N)=O [Ac-YEHW-NH2] (Ac-YEHW-NH2) | – |
| 64% | < 42 nM | CC(=O)N[C@@H](Cc1ccc(O)cc1)C(=O)N[C@@H](CCC(=O)O)C(=O)N[C@@H](CCCCN)C(=O)N[C@@H](Cc1ccccc1)C(N)=O [Ac-YEKF-NH2] (Ac-YEKF-NH2) | – |
| 22% | > 42 nM | CC(=O)N[C@@H](Cc1ccc(O)cc1)C(=O)N[C@@H](CCC(=O)O)C(=O)N[C@@H](CCCCN)C(=O)N[C@@H](Cc1c[nH]c2ccccc12)C(N)=O [Ac-YEKW-NH2] (Ac-YEKW-NH2) | – |

— publication PMC4197335, “Cancer-Selective Targeting of the NF-κB Survival Pathway with GADD45β/MKK7 Inhibitors” (Cancer Cell, 2014)
